Source: patent publication US5391744A (priority 1993, dated 1995)
“Also recorded” adds a separate entry of the source. Where two headings read alike, the source gives them in different places.

Experiments:
[1] = biological target: T1, dopamine transporter (high-affinity uptake of [^3 H]dopamine into striatal nerve endings) (Rattus norvegicus, UniProt P23977); assay: inhibition of high-affinity uptake of [^3 H]dopamine into striatal nerve endings (synaptosomes); format: biochemical
T1 construct: striatal nerve endings (synaptosomes); from tissue; host or cells: striatal nerve endings (synaptosomes)
T1 sequence (P23977 whole entry): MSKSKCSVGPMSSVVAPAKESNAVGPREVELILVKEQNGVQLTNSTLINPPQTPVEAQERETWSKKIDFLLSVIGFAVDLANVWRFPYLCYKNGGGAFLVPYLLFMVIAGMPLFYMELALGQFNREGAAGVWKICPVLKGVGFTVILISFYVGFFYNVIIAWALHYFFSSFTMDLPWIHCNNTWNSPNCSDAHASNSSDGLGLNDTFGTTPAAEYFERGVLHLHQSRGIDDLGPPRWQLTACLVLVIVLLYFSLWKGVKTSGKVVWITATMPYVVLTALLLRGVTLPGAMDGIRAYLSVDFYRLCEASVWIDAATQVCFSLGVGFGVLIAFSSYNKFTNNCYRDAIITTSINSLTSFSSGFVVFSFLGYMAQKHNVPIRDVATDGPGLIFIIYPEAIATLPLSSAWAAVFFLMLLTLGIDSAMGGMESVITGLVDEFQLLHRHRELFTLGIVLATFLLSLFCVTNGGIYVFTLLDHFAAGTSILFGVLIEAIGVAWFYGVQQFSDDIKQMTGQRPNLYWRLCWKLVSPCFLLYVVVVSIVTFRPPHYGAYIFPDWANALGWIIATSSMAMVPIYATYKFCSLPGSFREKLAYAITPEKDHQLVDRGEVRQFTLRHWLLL

dopamine transporter [2] = biological target: T2, dopamine transporter (Rattus norvegicus, UniProt P23977); assay: displacement of [^3 H]mazindol binding from rat striatal membranes; conditions: for potency / affinity increase over cocaine, mazindol binding: relative to (-)-cocaine
T2 sequence (P23977 whole entry): as above

dopamine transporter [3] = biological target: T2, dopamine transporter; parameters: from tissue; host or cells: rat striatal membranes; conditions: 0.5 nM [^3 H]-1b; rat striata; F. I. Carroll et al.; cited from earlier work
[4] = tested on: rats trained to discriminate cocaine
[5] = tested on: rats trained to discriminate cocaine; assay: animal or person; conditions: Rattus norvegicus, ip, 0.25 h, read-out: ED50 (50% cocaine-lever responding)
dopamine transporter [6] = conditions: in words; literature; cited from earlier work
nonhuman primates = conditions: in words; literature; cited from earlier work
[7] = mean ± SE (N), striatal synaptosomes, read-out: IC50 [^3 H] Dopamine Uptake
[8] = dose-response test, 0.625 mg/kg, 15 min, mean ± S.E.M.
[9] = dose-response test, 1.25 mg/kg, 15 min, mean ± S.E.M.
[10] = dose-response test, 2.5 mg/kg, 15 min, mean ± S.E.M.
[11] = dose-response test, 5.0 mg/kg, 15 min, mean ± S.E.M.
[12] = dose-response test, 10.0 mg/kg, 15 min, mean ± S.E.M.
[13] = temporal test, 10.0 mg/kg, 5 min, mean ± S.E.M.
[14] = temporal test, 10.0 mg/kg, 15 min, mean ± S.E.M.
[15] = temporal test, 10.0 mg/kg, 60 min, mean ± S.E.M.
[16] = temporal test, 10.0 mg/kg, 120 min, mean ± S.E.M.

Q: What does the source list for `CCOC(=O)/C=C/[C@H]1[C@@H](OC(=O)c2ccccc2)C[C@@H]2CC[C@H]1N2C` [Compound 2e, 3β-(Benzoyloxy)-2β-[(E)-2-(ethoxycarbonyl)vinyl]tropane]?
A: IC50 [1, 7]: 310 ± 10 nM; potency increase over cocaine, dopamine uptake ([1]; relative to (-)-cocaine): 4-5 times; IC50 (dopamine transporter [2]): 50 ± 10 nM; potency / affinity increase over cocaine, mazindol binding (dopamine transporter [2]): 4-5 fold

Q: For `CCOP(=O)(/C=C/[C@H]1[C@@H](OC(=O)c2ccccc2)C[C@@H]2CC[C@H]1N2C)OCC` [Compound 2f, 3β-Benzoyloxy-2β-[(E)-2-(diethoxyphosphono)vinyl]tropane], which IC50 [1] is on record?
A: Its IC50 is 5500 ± 70 nM.

Q: What about the “inhibition of dopamine uptake” value ([1]; in words) of the same molecule?
A: The value was “found to inhibit dopamine uptake”.

Q: And the “fold less potent than cocaine, dopamine uptake” value ([1]; relative to (-)-cocaine)?
A: Its value is “about 10 fold”.

Q: What about the IC50 (dopamine transporter [2]) of the same molecule?
A: Its IC50 is 4850 ± 470 nM.

Q: Which IC50 [1, 7] does the source give for `CN1[C@H]2CC[C@@H]1[C@@H](/C=C/Cl)[C@@H](OC(=O)c1ccccc1)C2` [Compound 2b, 3β-(Benzoyloxy)-2β-[(E)-2-chlorovinyl]tropane] here?
A: Its IC50 is 368 ± 190 nM.

Q: What about the “potency / affinity increase over cocaine, mazindol binding” value (dopamine transporter [2]) of the same molecule?
A: Its value is “approximate twofold higher affinity; also recorded: about two-fold more potent than cocaine”.

Q: For `COC(=O)[C@H]1[C@@H](c2ccc(Cl)cc2)C[C@@H]2CC[C@H]1N2C` [Compound 1d, 3β-(p-chlorophenyl)tropane-2β-carboxylic acid methyl ester, reference compound], which “potency relative to (-)-cocaine, inhibition of [^3 H]-1b binding” value (dopamine transporter [3]) is on record?
A: The value was 85 times.

Q: And the IC50 [1]?
A: The IC50 was 3.2 ± 0.1 nM.

Q: And the IC50 (dopamine transporter [2])?
A: Its IC50 is 1.7 ± 0.1 nM.

Q: Which “duration of complete cocaine-like response” value ([4]; cocaine 10 mg/kg) does the source give for `COC(=O)[C@H]1[C@@H](OC(=O)c2ccccc2)C[C@@H]2CC[C@H]1N2C` [(-)-cocaine, methyl 3-(benzoyloxy) -8-methyl-8-azabicyclo [3.2.1]octane-2 carboxylate, reference compound] here?
A: Its value is “approximately 60 min”.

Q: What about the “injection period eliciting complete cocaine-like response” value ([4]; cocaine 10 mg/kg) of the same molecule?
A: The value was 5 min.

Q: And the “response type at 120 min” value ([4]; cocaine, 120 min injection period, in words)?
A: The value was “elicited primarily saline-appropriate responding”.

Q: And the “n/N (animals completing 20 responses / tested)” value ([4]; dose-response test, 0.625 mg/kg, 15 min)?
A: The value was 7/7.

Q: And the “% Drug responses” value [4, 8]?
A: Its value is 6 ± 2%.

Q: And the “Rate (responses/min)” value [4, 8]?
A: The value was 27.3 ± 5 responses/min.

Q: And the “n/N (animals completing 20 responses / tested)” value ([4]; dose-response test, 1.25 mg/kg, 15 min)?
A: Its value is 7/7.

Q: And the “% Drug responses” value [4, 9]?
A: The value was 44 ± 18%.

Q: What about the “Rate (responses/min)” value [4, 9] of the same molecule?
A: The value was 21.3 ± 5 responses/min.

Q: And the “n/N (animals completing 20 responses / tested)” value ([4]; dose-response test, 2.5 mg/kg, 15 min)?
A: Its value is 7/7.

Q: What about the “% Drug responses” value [4, 10] of the same molecule?
A: The value was 61 ± 16%.

Q: What about the “Rate (responses/min)” value [4, 10] of the same molecule?
A: The value was 31.6 ± 16 responses/min.

Q: And the “n/N (animals completing 20 responses / tested)” value ([4]; dose-response test, 5.0 mg/kg, 15 min)?
A: The value was 7/7.

Q: What about the “% Drug responses” value [4, 11] of the same molecule?
A: The value was 98 ± 2%.

Q: And the “Rate (responses/min)” value [4, 11]?
A: Its value is 89.0 ± 16 responses/min.

Q: And the “n/N (animals completing 20 responses / tested)” value ([4]; dose-response test, 10.0 mg/kg, 15 min)?
A: The value was 7/7.

Q: What about the “% Drug responses” value [4, 12] of the same molecule?
A: The value was 99 ± 1%.

Q: What about the “Rate (responses/min)” value [4, 12] of the same molecule?
A: Its value is 75.8 ± 13 responses/min.

Q: What about the response rates ([4]; in words, across test doses) of the same molecule?
A: Its response rates is “fairly stable across all test doses”.

Q: What about the “substitution for the cocaine cue / drug-appropriate responding” value ([4]; in words, dose-dependence over the tested doses) of the same molecule?
A: The value was “increased in a dose-dependent manner”.

Q: And the “n/N (animals completing 20 responses / tested)” value ([4]; temporal test, 10.0 mg/kg, 5 min)?
A: Its value is 7/7.

Q: What about the “% Drug responses” value [4, 13] of the same molecule?
A: Its value is 85 ± 13%.

Q: What about the “Rate (responses/min)” value [4, 13] of the same molecule?
A: The value was 28.2 ± 8 responses/min.

Q: What about the “n/N (animals completing 20 responses / tested)” value ([4]; temporal test, 10.0 mg/kg, 15 min) of the same molecule?
A: Its value is 7/7.

Q: What about the “% Drug responses” value [4, 14] of the same molecule?
A: Its value is 99 ± 1%.

Q: What about the “Rate (responses/min)” value [4, 14] of the same molecule?
A: Its value is 75.8 ± 13 responses/min.

Q: What about the “n/N (animals completing 20 responses / tested)” value ([4]; temporal test, 10.0 mg/kg, 30 min) of the same molecule?
A: Its value is 7/7.

Q: What about the “% Drug responses” value ([4]; temporal test, 10.0 mg/kg, 30 min, mean) of the same molecule?
A: The value was 100%.

Q: And the “Rate (responses/min)” value ([4]; temporal test, 10.0 mg/kg, 30 min, mean ± S.E.M.)?
A: Its value is 60.6 ± 11 responses/min.

Q: What about the “n/N (animals completing 20 responses / tested)” value ([4]; temporal test, 10.0 mg/kg, 60 min) of the same molecule?
A: Its value is 7/7.

Q: And the “% Drug responses” value [4, 15]?
A: The value was 81 ± 14%.

Q: What about the “Rate (responses/min)” value [4, 15] of the same molecule?
A: The value was 23.0 ± 4 responses/min.

Q: What about the “n/N (animals completing 20 responses / tested)” value ([4]; temporal test, 10.0 mg/kg, 120 min) of the same molecule?
A: The value was 7/7.

Q: What about the “% Drug responses” value [4, 16] of the same molecule?
A: Its value is 31 ± 18%.

Q: What about the “Rate (responses/min)” value [4, 16] of the same molecule?
A: Its value is 27.7 ± 7 responses/min.

Q: What about the ED50 [5] of the same molecule?
A: Its ED50 is 1.7 mg/kg.

Q: And the “binding to / inhibition of the dopamine transporter” value (dopamine transporter [6])?
A: Its value is “binds to the dopamine transporter and inhibits dopamine transport”.

Q: Which “binding to / inhibition of the dopamine transporter” value (dopamine transporter [6]) does the source give for `OC1(c2ccc(Cl)cc2)c2ccccc2C2=NCCN21` (stereo not drawn) [mazindol] here?
A: Its value is “potent inhibitors of binding at the transport site for dopamine”.

Q: What about the “potency in maintaining self-administration” value (nonhuman primates) of the same molecule?
A: The value was “potent in maintaining self-administration”.

Q: What does the source list for `COC(=O)C(c1ccccc1)C1CCCCN1` (stereo not drawn) [methylphendiate]?
A: binding to / inhibition of the dopamine transporter (dopamine transporter [6]): potent inhibitors of binding at the transport site for dopamine; potency in maintaining self-administration (nonhuman primates): potent in maintaining self-administration

Q: Which results are given for `COC(=O)[C@H]1[C@@H](c2ccc(F)cc2)C[C@@H]2CC[C@H]1N2C` [Compound 1b, 3β-(p-fluorophenyl)tropane-2β-carboxylic acid methyl ether]?
A: binding to / inhibition of the dopamine transporter (dopamine transporter [6]): most potent compounds in binding and behavioral studies; potency in behavioral studies (nonhuman primates): most potent compounds in binding and behavioral studies

Q: With `CN1Cc2c(N)cccc2C(c2ccccc2)C1` (stereo not drawn) [nomifensine] as the molecule, how does the “potency in maintaining self-administration” value (nonhuman primates) read?
A: Its value is “potent in maintaining self-administration”.

Q: For `C=C[C@H]1[C@@H](OC(=O)c2ccccc2)C[C@@H]2CC[C@H]1N2C` [Compound 2a, 3β-(Benzoyloxy)-2β-vinyltropane], which IC50 [1, 7] is on record?
A: Its IC50 is 1120 ± 390 nM.

Q: And the “fold less potent than cocaine, dopamine uptake” value ([1]; relative to (-)-cocaine)?
A: Its value is “two-fold less potent”.

Q: And the “activity relative to parent structure (cocaine)” value (dopamine transporter [2]; Table I data, in words)?
A: Its value is “not substantially less active than the parent structure”.

Q: Which results are given for `CN1[C@H]2CC[C@@H]1[C@@H](/C=C/Cl)[C@@H](c1ccc(Cl)cc1)C2` [Compound 2d, 3β-(4-Chlorophenyl)-2β-[(E)-2-chlorovinyl]tropane]?
A: IC50 [1]: 1.26 ± 0.3 nM; IC50 (dopamine transporter [2]): 0.72 ± 0.06 nM; potency of 2d relative to 2c (dopamine transporter [2]; relative to 2c, binding affinity): doubling the potency

Q: With `COC(=O)[C@H]1[C@@H](c2ccc(I)cc2)C[C@@H]2CC[C@H]1N2C` [Compound 1c] as the molecule, how does the “potency relative to (-)-cocaine, inhibition of [^3 H]-1b binding” value (dopamine transporter [3]) read?
A: Its value is 78 times.

Q: Which results are given for `COC(=O)[C@H]1[C@@H](c2ccccc2)C[C@@H]2CC[C@H]1N2C` [Compound 1a, 3β-phenyltropane-2β-carboxylic acid methyl ester]?
A: binding to / inhibition of the dopamine transporter (dopamine transporter [6]): most potent compounds in binding and behavioral studies; potency in behavioral studies (nonhuman primates): most potent compounds in binding and behavioral studies
